The test system of data set [1] is human skeletal muscle myotubes. The experiment in a line: Evaluation of the muscle-relaxant effect (Test 2), contractile activity of myotubes stimulated with carbacol. Format: cell-based. The settings on record: myotubes with carbacol 3 mM, FIG. 5A; at least partly restored during washing. As for the experimental part:
The myoblasts were differentiated into myotubes in differentiation medium (DMEM: F12, with the addition of 2% of horse serum). The differentiated myotubes were used for the experiments from the fourth to the seventh day of maintenance in differentiation medium.
For the evaluation of the muscle-relaxant effect of MILESAX, human myoblasts were seeded onto microscope slides and, once they had reached at least about 70% confluence, they were maintained in differentiation medium for 4-7 days before being used for the experiments. The contractile activity of the myotubes was recorded with a TCS SP5 confocal microscope (Leica Microsystems) in transmitted-light mode with the 40× objective lens (HCX PL APO, 1.25 NA, Leica Microsystems) using the incubator associated with the microscope to maintain the cells under a controlled atmosphere (37° C., 5% CO2). […]
Not all the myotubes in the culture were capable of contracting, and similarly it was never possible to observe spontaneous contractions only in differentiation medium. […] The contractile activity of the identified active cell(s) was recorded with a confocal microscope in transmitted light, with an image acquired every 151 ms. […]

For data set [2], the system named is IL-1β release from differentiated THP-1 monocytes. Nature of the data set: ELISA test (Test 1), release of IL-1β into culture medium. The class given is cell-based, human. The settings on record: positive control at 100 μM, LPS 1 μg/ml for 2 hours. For orientation: In an ELISA, binding on a coated surface is turned into a signal by an enzyme label.
In data set [3] the test system is THP-1 cells. The settings on record: positive controls at 100 μM. An excerpt:
The absorbance measured correlates directly with the number of live cells.

Data set [4] has as its system TNFα release from differentiated THP-1 monocytes. The experiment in a line: ELISA test (Test 1), release of TNFα into culture medium. The settings on record: positive control at 100 μM, LPS 1 μg/ml for 2 hours. Format: cell-based, human.

The source of these data is patent US10583120B2, “Composition having a muscle-relaxant and anti-inflammatory activity” (Kolinpharma S.p.A., priority 2014, dated 2020).

For `COc1c(O[C@@H]2O[C@H](CO)[C@@H](O)[C@H](O)[C@H]2O)cc2c(c1OC)-c1ccc(SC)c(=O)cc1[C@@H](NC(C)=O)CC2` [Muscoril, thiocolchicoside], the “frequency of contractions per unit time (contractions per minute)” value in data set [1] is reported as “clear tendency”.
As for `O=C(O)Cc1ccccc1Nc1c(Cl)cccc1Cl` [diclofenac], the “release of IL-1β” value in data set [2] is recorded as “effective in reducing the release of IL-1β”. Besides, the “toxic effect on the cells (MTT test)” value in data set [3] was “no toxic effect on the cells”. In data set [4], the “release of TNFα relative to vehicle/control” value is “significantly reduced the release of TNFα”.
For `CC(C)Cc1ccc(C(C)C(=O)O)cc1` (stereo not drawn) [ibuprofen], in data set [2], the “release of IL-1β” value is on record as “no effect on the release of IL-1β”. For the same molecule, in data set [4], the “release of TNFα relative to vehicle/control” value is on record as “did not lead to any reduction in the release of TNFα”.
